ChEMBL document CHEMBL1201862, “PubChem BioAssay data set” (2004)
Calls of active or inactive are those of the source.

Assays:
Caspase-3 = biological target: T1, Caspase-3 (Homo sapiens, UniProt P42574); test: inhibition of recombinant caspase-3 activity – biochemical, luminescence, set 2, selectivity assay for SENP protease inhibitor project, SAR follow-up (AID 588599); assay type: functional
T1 sequence (P42574 whole entry): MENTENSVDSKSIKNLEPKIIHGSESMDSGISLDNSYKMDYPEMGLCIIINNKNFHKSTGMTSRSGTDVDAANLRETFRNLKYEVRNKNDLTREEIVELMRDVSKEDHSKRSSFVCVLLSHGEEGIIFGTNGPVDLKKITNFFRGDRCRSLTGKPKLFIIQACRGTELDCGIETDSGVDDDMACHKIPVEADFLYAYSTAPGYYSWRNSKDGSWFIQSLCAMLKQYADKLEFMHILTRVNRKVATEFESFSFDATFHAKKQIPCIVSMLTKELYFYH

[1] = biological target: T2, Sentrin-specific protease 8 (Homo sapiens, UniProt Q96LD8); test: inhibition of sentrin protease 8 – biochemical, luminescence, set 2, SAR follow-up (AID 588601); assay type: functional
T2 sequence (Q96LD8 whole entry): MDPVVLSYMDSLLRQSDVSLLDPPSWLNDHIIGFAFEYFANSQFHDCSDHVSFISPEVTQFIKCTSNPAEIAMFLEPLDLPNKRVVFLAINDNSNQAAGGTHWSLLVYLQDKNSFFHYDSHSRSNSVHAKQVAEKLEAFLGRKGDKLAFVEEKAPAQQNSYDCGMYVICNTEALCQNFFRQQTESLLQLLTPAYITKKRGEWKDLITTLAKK

[2] = biological target: T3, Sentrin-specific protease 7 (Homo sapiens, UniProt Q9BQF6); test: inhibition of human SENP7 cleavage activity – biochemical, luminescence, set 2, SAR follow-up (AID 588600); assay type: functional
T3 sequence (Q9BQF6 whole entry): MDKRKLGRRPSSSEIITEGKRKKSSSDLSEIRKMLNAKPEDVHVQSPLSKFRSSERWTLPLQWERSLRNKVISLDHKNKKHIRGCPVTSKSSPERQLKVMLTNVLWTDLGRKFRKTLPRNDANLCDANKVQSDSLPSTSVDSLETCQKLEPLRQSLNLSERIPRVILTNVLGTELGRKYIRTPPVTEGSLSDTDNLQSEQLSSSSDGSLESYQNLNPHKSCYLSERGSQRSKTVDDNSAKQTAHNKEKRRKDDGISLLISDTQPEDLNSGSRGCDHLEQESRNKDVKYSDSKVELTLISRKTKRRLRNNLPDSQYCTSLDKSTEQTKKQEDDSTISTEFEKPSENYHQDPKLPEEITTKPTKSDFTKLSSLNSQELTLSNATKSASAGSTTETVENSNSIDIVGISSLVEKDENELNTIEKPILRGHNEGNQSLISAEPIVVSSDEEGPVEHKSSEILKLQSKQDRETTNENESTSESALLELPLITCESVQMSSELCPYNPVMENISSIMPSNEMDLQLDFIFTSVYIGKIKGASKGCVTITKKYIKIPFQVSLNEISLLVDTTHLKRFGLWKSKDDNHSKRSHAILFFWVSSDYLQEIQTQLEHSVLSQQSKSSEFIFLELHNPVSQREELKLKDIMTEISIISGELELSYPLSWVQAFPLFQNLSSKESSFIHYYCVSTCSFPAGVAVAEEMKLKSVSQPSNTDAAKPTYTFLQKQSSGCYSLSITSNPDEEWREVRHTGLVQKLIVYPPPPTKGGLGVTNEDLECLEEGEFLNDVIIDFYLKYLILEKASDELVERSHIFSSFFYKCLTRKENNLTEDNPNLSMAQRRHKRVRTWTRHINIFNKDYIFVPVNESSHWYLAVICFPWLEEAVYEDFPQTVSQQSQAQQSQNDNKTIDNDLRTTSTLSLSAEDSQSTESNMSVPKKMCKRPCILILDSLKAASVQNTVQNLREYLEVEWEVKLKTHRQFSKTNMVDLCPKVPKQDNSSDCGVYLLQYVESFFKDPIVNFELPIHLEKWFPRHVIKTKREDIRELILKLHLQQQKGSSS

[3] = biological target: T4, Sentrin-specific protease 6 (Homo sapiens, UniProt Q9GZR1); test: inhibition of human SENP6 catalytic domain – biochemical, luminescence, set 2, SAR follow-up (AID 588598); assay type: functional
T4 sequence (Q9GZR1 whole entry): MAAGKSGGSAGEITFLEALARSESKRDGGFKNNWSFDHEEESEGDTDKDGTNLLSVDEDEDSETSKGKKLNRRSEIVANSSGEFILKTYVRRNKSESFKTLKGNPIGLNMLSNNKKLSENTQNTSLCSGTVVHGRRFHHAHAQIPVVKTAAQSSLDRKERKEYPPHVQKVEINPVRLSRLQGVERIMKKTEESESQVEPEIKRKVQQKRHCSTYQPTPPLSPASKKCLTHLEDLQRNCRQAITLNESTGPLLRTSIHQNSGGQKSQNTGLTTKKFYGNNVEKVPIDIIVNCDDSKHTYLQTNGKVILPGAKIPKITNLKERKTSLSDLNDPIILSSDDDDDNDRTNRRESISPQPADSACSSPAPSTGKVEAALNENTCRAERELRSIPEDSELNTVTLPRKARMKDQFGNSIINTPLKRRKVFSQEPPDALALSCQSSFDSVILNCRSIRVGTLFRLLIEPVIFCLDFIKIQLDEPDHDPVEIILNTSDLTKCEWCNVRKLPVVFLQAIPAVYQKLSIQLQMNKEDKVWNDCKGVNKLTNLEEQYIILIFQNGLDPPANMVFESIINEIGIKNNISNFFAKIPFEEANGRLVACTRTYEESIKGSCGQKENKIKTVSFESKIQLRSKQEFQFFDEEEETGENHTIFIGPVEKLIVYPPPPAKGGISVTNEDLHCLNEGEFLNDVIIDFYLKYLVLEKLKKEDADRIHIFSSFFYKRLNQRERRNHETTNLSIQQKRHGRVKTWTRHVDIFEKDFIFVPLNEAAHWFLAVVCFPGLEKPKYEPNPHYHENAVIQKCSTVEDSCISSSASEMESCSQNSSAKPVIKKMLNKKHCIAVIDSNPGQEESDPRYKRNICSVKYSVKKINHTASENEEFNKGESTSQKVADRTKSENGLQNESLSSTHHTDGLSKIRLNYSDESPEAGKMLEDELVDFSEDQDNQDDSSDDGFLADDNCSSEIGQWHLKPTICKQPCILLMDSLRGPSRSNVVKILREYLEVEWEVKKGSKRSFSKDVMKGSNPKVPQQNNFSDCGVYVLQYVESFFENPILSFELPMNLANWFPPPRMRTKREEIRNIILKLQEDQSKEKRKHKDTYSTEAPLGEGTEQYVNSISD

Phospholipase D1 = Phospholipase D1 (Homo sapiens, UniProt Q13393); test: PLD1 purified enzyme concentration response. [Related pubchem assays (depositor defined):AID588854]; assay type: functional
Phospholipase D2 = Phospholipase D2 (Homo sapiens, UniProt O14939); test: PLD2 purified enzyme concentration response. [Related pubchem assays (depositor defined):AID588854]; assay type: functional
Hexokinase-1 = Hexokinase-1 (Homo sapiens, UniProt P19367); test: SAR analysis of small molecule inhibitors of hexokinase domain containing I (HKDC1) in the hexokinase 1 selectivity assay. [Related pubchem assays (depositor defined):AID493160, AID493190]; assay type: functional
Hexokinase HKDC1 = biological target: T5, Hexokinase HKDC1 (Homo sapiens, UniProt Q2TB90); test: SAR analysis of small molecule inhibitors of hexokinase domain containing I (HKDC1). [Related pubchem assays (depositor defined):AID493160, AID493190]; assay type: functional
T5 sequence (Q2TB90 whole entry): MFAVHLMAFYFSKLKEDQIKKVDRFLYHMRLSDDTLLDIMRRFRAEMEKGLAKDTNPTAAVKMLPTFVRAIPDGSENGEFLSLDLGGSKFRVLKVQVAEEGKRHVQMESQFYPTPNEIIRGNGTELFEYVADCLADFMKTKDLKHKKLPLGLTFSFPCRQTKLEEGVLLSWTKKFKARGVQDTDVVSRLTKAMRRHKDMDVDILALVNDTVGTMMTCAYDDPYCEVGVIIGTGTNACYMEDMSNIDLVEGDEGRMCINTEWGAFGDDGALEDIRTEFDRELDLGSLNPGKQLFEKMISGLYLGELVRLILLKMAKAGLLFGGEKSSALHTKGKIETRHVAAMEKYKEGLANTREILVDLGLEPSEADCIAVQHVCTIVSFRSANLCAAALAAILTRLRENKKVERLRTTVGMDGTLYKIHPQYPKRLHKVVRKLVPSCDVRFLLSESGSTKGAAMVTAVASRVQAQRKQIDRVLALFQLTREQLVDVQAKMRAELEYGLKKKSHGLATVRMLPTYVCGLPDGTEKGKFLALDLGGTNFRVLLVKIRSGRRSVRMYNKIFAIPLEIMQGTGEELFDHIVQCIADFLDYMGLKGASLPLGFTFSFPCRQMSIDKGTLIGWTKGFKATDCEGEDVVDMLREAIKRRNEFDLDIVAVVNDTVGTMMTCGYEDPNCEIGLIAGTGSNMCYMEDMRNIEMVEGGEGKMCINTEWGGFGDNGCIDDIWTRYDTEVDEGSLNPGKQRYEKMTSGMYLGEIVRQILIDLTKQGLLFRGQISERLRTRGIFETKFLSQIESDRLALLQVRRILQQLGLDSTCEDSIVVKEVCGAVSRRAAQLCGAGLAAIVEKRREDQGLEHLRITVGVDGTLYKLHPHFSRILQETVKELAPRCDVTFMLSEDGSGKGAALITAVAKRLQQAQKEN

Major prion protein = Major prion protein (Homo sapiens, UniProt P04156); assay type: functional, cell-based

Q: Which IC50 (Caspase-3) does the source give for `Cc1[nH]c2ccccc2c1C(=O)C(=O)N1CCCCCC1` here?
A: Its IC50 is > 99 µM (inactive).

Q: What about the IC50 [1] of the same molecule?
A: The IC50 was > 99 µM (inactive).

Q: And the IC50 [2]?
A: Its IC50 is > 99 µM (inactive).

Q: And the IC50 [3]?
A: The IC50 was > 99 µM (inactive).

Q: What does the source list for `O=C(NCCN1CCC2(CC1)C(=O)NCN2c1ccc(F)c(F)c1)c1ccc2ccccc2c1`?
A: IC50 (Phospholipase D1): 20 µM (active); IC50 (Phospholipase D2): 0.098 µM (active)

Q: For `O=C(CSc1ncnc2ccccc12)Nc1cccc(S(=O)(=O)N2CCOCC2)c1`, which IC50 (Hexokinase-1) is on record?
A: Its IC50 is > 80 µM (inactive).

Q: What about the IC50 (Hexokinase HKDC1) of the same molecule?
A: Its IC50 is > 80 µM (inactive).

Q: What about the IC50 (Major prion protein) of the same molecule?
A: Its IC50 is 9.12 µM (active).

Q: What about the IC50 (cells) of the same molecule?
A: The IC50 was > 138 µM (inactive).
